Experimental data from patent publication US20260224688A1, “HELPER LIPIDS FOR NUCLEIC ACID DELIVERY” (SANOFI PASTEUR INC., priority 2023, published 2026).

Columns and labels:
[1] = tested on: hEPO; assay: IM EPO expression of LNPs containing phosphatidylcholine helper lipids; assay type: in vivo, female BALB/cJ mice; conditions: PC/CL-C formulations, helper lipid 13.5 mol %, DOPE = 1
Method: (§1) EPO expression studies were conducted with female BALB/cJ mice 6-8 weeks of age. Mice were dosed with […] EPO mRNA in 30 μL of LNPs by a single intramuscular (IM) injection into the gastrocnemius leg muscle. Blood samples were taken 6 and 24 hours post injection and hEPO levels were measured in the blood serum of the mice using an ELISA assay according to the manufacture's protocol. WO2022/099003 A1 also describes an in vivo assay for intramuscular administration (e.g. on page 46, paragraph [00206]).
(§2) Lipid nanoparticles were formulated containing the four lipid components shown below, complexed with a hEPO messenger RNA. • Cationic lipid CL-C, 40 mol % • Helper lipid, 13.5 mol % • Cholesterol, 44.8 mol % • DMG-PEG-2K (1,2-dimyristoyl-rac-glycero-3-methoxypolyethyleneglycol), 1.67 mol %
EPO expression studies were performed as described above in Example 3.

[2] = Dynamic light scattering of lipid nanoparticles (size, PDI); assay type: physicochemical
Method: (§3) Lipid nanoparticle formulations 3 were prepared by Process A at a molar ratio of 40:1.5:30:28.5 (Cationic Lipid: DMG-PEG2000: Cholesterol: Helper Lipid) with the cationic lipids and helper lipids disclosed in the tables below. The Polydispersity Index (Pdl) of lipid nanoparticles can be determined by diluting the formulation in 10% trehalose at about 0.1 mg/ml mRNA concentration and then measuring the size on Malvern zetasizer. The lipid nanoparticle size can be obtained with Malvern Zetasizer Nano-ZS.
Dynamic light scattering (DLS) measurements were performed using a Malvern Instruments Zetasizer with a backscattering detector angle of 173° and a 4-mW, 633-nm He—Ne laser (Worcestershire, UK). The samples were analyzed by diluting in 10% Trehalose and measuring the size and Poly dispersity Index (PDI) in an optical grade polystyrene cuvette.

[3] = tested on: hEPO; assay: IV EPO expression of LNPs (tail vein injection); assay type: in vivo, female BALB/cJ mice; conditions: cationic lipid CL-0137, helper lipid 30 mol %; 0.017 μg EPO mRNA tail vein; 6 hours; DOPE = 1
Method: as §2, with “below at a ratio of 40:30:28.5:1.5,” for “below,”, “CL-0137,” for “CL-C,”, “30” for “13.5”, “28.5” for “44.8”, “1.5” for “1.67”
EPO expression studies were conducted with female BALB/cJ mice 6-8 weeks of age. Mice were dosed with 0.017 μg EPO mRNA LNPs in a volume of 5 ul by a single tail vein injection. Blood samples were taken 6 hours post injection and hEPO levels were measured in the blood serum of the mice using an ELISA assay according to the manufacture's protocol.

[4] = mRNA encapsulation efficiency of lipid nanoparticles; assay type: physicochemical; conditions: for Encapsulation efficiency (EE): LNP with cationic lipid CL-A
From the text: In embodiments, the lipid nanoparticle encapsulates a nucleic acid, optionally an mRNA encoding a peptide or protein. In embodiments, the lipid nanoparticle encapsulates an mRNA encoding a peptide or protein, optionally for use in a vaccine. In embodiments, the peptide is an antigen. As used herein, the phrase “encapsulation percentage” refers to the fraction of therapeutic agent (e.g. mRNA) that is effectively encapsulated within a liposomal-based vehicle (e.g. a lipid nanoparticle) relative to the initial fraction of therapeutic agent present in the lipid phase. In embodiments, the lipid nanoparticles have an encapsulation percentage for mRNA of at least 50%. In embodiments, the lipid nanoparticles have an encapsulation percentage for mRNA of at least 55%. In embodiments, the lipid nanoparticles have an encapsulation percentage for mRNA of at least 60%. In embodiments, the lipid nanoparticles have an encapsulation percentage for mRNA of at least 65%. In embodiments, the lipid nanoparticles have an encapsulation percentage for mRNA of at least 70%. In embodiments, the lipid nanoparticles have an encapsulation percentage for mRNA of at least 75%. In embodiments, the lipid nanoparticles have an encapsulation percentage for mRNA of at least 80%. In embodiments, the lipid nanoparticles have an encapsulation percentage for mRNA of at least 85%. In embodiments, the lipid nanoparticles have an encapsulation percentage for mRNA of at least 90%. In embodiments, the lipid nanoparticles have an encapsulation percentage for mRNA of at least 95%. In embodiments, the encapsulation percentage is calculated by performing the Ribogreen assay (Invitrogen) with and without the presence of 0.1% Triton-X 100.
The lipid nanoparticles in the examples of the present invention were formulated using Process A of WO 2018/089801 (see, e.g., Example 1 and FIG. 1 of WO 2018/089801). Process A (“A”) relates to a conventional method of encapsulating mRNA by mixing mRNA with a mixture of lipids, without first pre-forming the lipids into lipid nanoparticles. In an exemplary process, an ethanolic solution of a mixture of lipids (cationic lipid, phosphatidylethanolamine, cholesterol, and polyethylene glycol-lipid) at a fixed lipid to mRNA ratio were combined with an aqueous buffered solution of target mRNA at an acidic pH under controlled conditions to yield a suspension of uniform LNPs. After ultrafiltration and diafiltration into a suitable diluent system, the resulting nanoparticle suspensions were diluted to final concentration, filtered, and stored frozen at −80° C. until use.
as §3

[5] = tested on: hEPO; assay: IM EPO expression of LNPs containing new helper lipids (hEPO in serum by ELISA); assay type: in vivo, female BALB/cJ mice; conditions: single IM injection; for 24-h EPO: serum 24 hours post injection
Method: Lipid nanoparticles were formulated containing the four lipid components shown below at a ratio of 40:30:28.5:1.5, complexed with a hEPO messenger RNA. • Cationic lipid, 40 mol % • Phospholipid (PEA) helper lipid, 30 mol % • Cholesterol, 28.5 mol % • DMG-PEG-2K (1,2-dimyristoyl-rac-glycero-3-methoxypolyethyleneglycol), 1.5 mol % The cationic lipid component of each formulation was selected from the compounds in the table below: […]
as §1

[6] = LNP with cationic lipid CL-A, hEPO mRNA, 40:30:28.5:1.5
[7] = CL-A LNP, 0.1 μg EPO mRNA in 30 μL, serum 6 hours post injection
[8] = CL-B LNP, serum 6 hours post injection

Row | SMILES | Polydispersity Index (PDI) ([2]; LNP with cationic lipid CL-A) | Size [2, 6] [nm] | PDI ([2]; LNP with cationic lipid CL-B) | Size ([2]; LNP with cationic lipid CL-B) [nm] | PDI ([2]; LNP with cationic lipid CL-C) | Size ([2]; LNP with cationic lipid CL-C) [nm] | PDI ([2]; LNP with cationic lipid CL-D) | Size ([2]; LNP with cationic lipid CL-D) [nm] | Encapsulation efficiency (EE) [4] [%] | EE ([4]; LNP with cationic lipid CL-B) [%] | EE ([4]; LNP with cationic lipid CL-C) [%] | EE ([4]; LNP with cationic lipid CL-D) [%] | Normalized Mean EPO expression [1] | Normalized Mean IV EPO expression [3] | 6-h EPO [5, 7] [ng/mL] | 24-h EPO ([5]; CL-A LNP) [ng/mL] | 6-h EPO [5, 8] [ng/mL] | 24-h EPO ([5]; CL-B LNP) [ng/mL] | 6-h EPO ([5]; CL-C LNP) [ng/mL] | 6-h EPO ([5]; CL-C LNP, (6-h)) [ng/mL]
1 | CCCCCCCCCCCCCCCC(=O)OC[C@H](COP(=O)(O)OCC[N+](C)(C)C)OC(=O)CCCCCCC(=O)OC(CCCCCCCC)CCCCCCCC [Compound 57, (R)-2-((8-(Heptadecan-9-yloxy)-8-oxooctanoyl)oxy)-3-(palmitoyloxy)propyl (2-(trimethylammonio)ethyl) phosphate] |  |  |  |  |  |  |  |  |  |  |  |  | 0.9 |  |  |  |  |  |  | 
2 | CCCCCCCCC(CCCCC)COC(=O)CCC(=O)OCC(COP(=O)(O)OCCN(C)C)OC(=O)CCC(=O)OCC(CCCCC)CCCCCCCC (centres unmarked) [Compound 10, O,O′-(3-(((2-(Dimethylamino)ethoxy)(hydroxy)phosphoryl)-oxy)propane-1,2-diyl) bis(2-pentyldecyl) disuccinate)] | 0.046 | 171 | 0.086 | 95.9 | 0.022 | 89.3 | 0.129 | 100.5 | 90 | 83 | 84 | 93 |  | 1.72 | 20.227 | 10.447 | 12.9 | 10.4 | 10.3 | 14.8
3 | CCCCCCCCC(CCCCCCCC)OC(=O)CCCCCCC(=O)OCC(COP(=O)(O)OCC[N+](C)(C)C)OC(=O)CCCCCCC(=O)OC(CCCCCCCC)CCCCCCCC (centres unmarked) [Compound 24, 2-(((2,3-Bis((8-(heptadecan-9-yloxy)-8-oxooctanoyl)oxy)propoxy)(hydroxy)-phosphoryl)oxy)-N,N,N-trimethylethan-1-aminium] | 0.055 | 160 | 0.111 | 107.0 | 0.116 | 108.8 |  |  | 94 | 87 | 85 |  |  | 1.82 | 19.2 |  | 29.4 |  |  | 19.5
4 | CC(C)CCCCOC(=O)CCCCCCC(=O)OCC(COP(=O)(O)OCCN(C)C)OC(=O)CCCCCCC(=O)OCCCCC(C)C (centres unmarked) [Compound 8, O′^1,O^1-(3-(((2-(Dimethylamino)ethoxy)(hydroxy)phosphoryl)-oxy)propane-1,2-diyl) 8-bis(5-methylhexyl) di(octanedioate)] | 0.06 | 116 | 0.146 | 92.3 | 0.102 | 91.1 | 0.061 | 151.4 | 89 | 18 | 87 | 28 |  | 0.29 |  |  |  |  | 0.5 | 1.4

The next lines start with results.

Row | Polydispersity Index (PDI) ([2]; LNP with cationic lipid CL-A) | Size [2, 6] [nm] | PDI ([2]; LNP with cationic lipid CL-B) | Size ([2]; LNP with cationic lipid CL-B) [nm] | PDI ([2]; LNP with cationic lipid CL-C) | Size ([2]; LNP with cationic lipid CL-C) [nm] | PDI ([2]; LNP with cationic lipid CL-D) | Size ([2]; LNP with cationic lipid CL-D) [nm] | Encapsulation efficiency (EE) [4] [%] | EE ([4]; LNP with cationic lipid CL-B) [%] | EE ([4]; LNP with cationic lipid CL-C) [%] | EE ([4]; LNP with cationic lipid CL-D) [%] | SMILES | Normalized Mean EPO expression [1] | Normalized Mean IV EPO expression [3] | 6-h EPO [5, 7] [ng/mL] | 24-h EPO ([5]; CL-A LNP) [ng/mL] | 6-h EPO [5, 8] [ng/mL] | 24-h EPO ([5]; CL-B LNP) [ng/mL] | 6-h EPO ([5]; CL-C LNP) [ng/mL] | 6-h EPO ([5]; CL-C LNP, (6-h)) [ng/mL]
5 | 0.126 | 112 | 0.113 | 108.2 | 0.087 | 110.1 |  |  | 84 | 78 | 78 |  | CCCCCCCCCC(CCCCCCCCC)C(=O)OCC(COP(=O)(O)OCCN(C)C)OC(=O)C(CCCCCCCCC)CCCCCCCCC (centres unmarked) [Compound 9, 3-(((2 (Dimethylamino)ethoxy)(hydroxy)phosphoryl)oxy)-propane-1,2-diyl bis(2-nonylundecanoate)] |  | 3.68 |  |  | 5.6 | 3.3 | 12.2 | 22.3
6 | 0.045 | 137 | 0.101 | 116.4 | 0.038 | 111.9 |  |  | 65 | 25 | 88 |  | CCCCCCCCCC(CCCCCCCCC)C(=O)OCC(COP(=O)(O)OCCN)OC(=O)C(CCCCCCCCC)CCCCCCCCC (centres unmarked) [Compound 3, 3-(((2-Aminoethoxy)(hydroxy)phosphoryl)oxy)propane-1,2-diyl bis(2-nonylundecanoate)] |  | 3.32 |  |  |  |  | 6.3 | 13.4
7 | 0.068 | 148 | 0.067 | 137.0 | 0.141 | 101.4 |  |  | 96 | 92 | 91 |  | CCCCCCCCC(CCCCCCCC)OC(=O)CCCCCCC(=O)OC[C@H](COP(=O)(O)OCCN(C)C)OC(=O)CCCCCCC(=O)OC(CCCCCCCC)CCCCCCCC [Compound 14] |  | 0.95 | 0 |  | 35.4 |  |  | 34.6
8 | 0.066 | 159 | 0.049 | 119.9 | 0.037 | 108.9 | 0.063 | 131.5 | 90 | 94 | 94 | 94 | CCCCCCCCC(CCCCCCCC)OC(=O)CCCCCCC(=O)OCC(COP(=O)(O)OCCN)OC(=O)CCCCCCC(=O)OC(CCCCCCCC)CCCCCCCC (centres unmarked) [Compound 6, 2-Aminoethyl (2,3-bis((8-(heptadecan-9-yloxy)-8-oxooctanoyl)oxy)propyl) phosphate] |  | 2.67 |  |  | 28.4 | 16.2 | 27.1 | 39.9
